Measurements as given in patent US10597388B2, “Pyridazinone herbicides” (FMC CORPORATION, priority 2014, dated 2020).

Key:
Test in all cases: Test E greenhouse herbicide test, pre- and postemergence
Format in all cases: in vivo
[1] = test system: nutsedge, yellow (yellow nutsedge, Cyperus esculentus); conditions: Preemergence
In short: (§1)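 Herbicidal effect was judged by eye relative to untreated plants 14 to 21 d after spraying, using 0 for no effect and 100 for complete control. Preemergence sprays went onto freshly seeded silt loam; postemergence sprays onto 2–18 cm seedlings.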

[2] = test system: waterhemp (common waterhemp, Amaranthus rudis)
In short: as §1

[3] = test system: dayflower (Virginia (VA) dayflower, Commelina virginica)
In short: as §1

[4] = test system: crabgrass, large (large crabgrass, Digitaria sanguinalis); conditions: Preemergence
In short: as §1

[5] = test system: Italian ryegrass (Lolium multiflorum)
In short: as §1

[6] = test system: foxtail, green (green foxtail, Setaria viridis); conditions: Preemergence
In short: as §1

[7] = test system: horseweed (Conyza canadensis)
In short: as §1

[8] = test system: field bindweed (Convolvulus arvensis)
In short: as §1

[9] = test system: barnyardgrass (Echinochloa crus-galli)
In short: as §1

[10] = test system: momingglory (Ipomoea coccinea); conditions: Preemergence
In short: as §1

[11] = 62 g ai/ha, scale 0 to 100 (0 no effect, 100 complete control)
[12] = 125 g ai/ha, scale 0 to 100 (0 no effect, 100 complete control)
[13] = 31 g ai/ha, scale 0 to 100, 0 no effect, 100 complete control
[14] = 250 g ai/ha, visual, scale 0 no effect to 100 complete control
[15] = 62 g ai/ha, Postemergence, scale 0 to 100 (0 no effect, 100 complete control)
[16] = 62 g ai/ha, Preemergence, scale 0 to 100 (0 no effect, 100 complete control)
[17] = 125 g ai/ha, Postemergence, scale 0 to 100 (0 no effect, 100 complete control)
[18] = 125 g ai/ha, Preemergence, scale 0 to 100 (0 no effect, 100 complete control)
[19] = 250 g ai/ha, Postemergence, scale 0 to 100 (0 no effect, 100 complete control)
[20] = Postemergence, 31 g ai/ha, visual, scale 0 no effect to 100 complete control
[21] = Preemergence, 31 g ai/ha, scale 0 to 100, 0 no effect, 100 complete control
[22] = Preemergence, 250 g ai/ha, visual, scale 0 no effect to 100 complete control
[23] = Preemergence, 125 g ai/ha, visual, scale 0 no effect to 100 complete control
[24] = 125 g ai/ha, visual, scale 0 no effect to 100 complete control

Compound: CC(=O)Oc1c(C)nn(C)c(=O)c1-c1c(C)sc2ccc(C)cc12 [Compound 25]
- Plant response rating, Nutsedge, Yellow [1, 11]: 20
- Plant response rating, Nutsedge, Yellow [1, 12]: 20
- Plant response rating, Nutsedge, Yellow [1, 13]: 0
- Plant response rating, Nutsedge, Yellow [1, 14]: 65
- Plant response rating, Waterhemp [2, 15]: 80
- Plant response rating, Waterhemp [2, 16]: 100
- Plant response rating, Waterhemp [2, 17]: 85
- Plant response rating, Waterhemp [2, 18]: 100
- Plant response rating, Waterhemp [2, 19]: 90
- Plant response rating, Waterhemp [2, 20]: 80
- Plant response rating, Waterhemp [2, 21]: 100
- Plant response rating, Waterhemp [2, 22]: 100
- Plant response rating, Dayflower, VA [3, 15]: 40
- Plant response rating, Dayflower, VA [3, 16]: 5
- Plant response rating, Dayflower, VA [3, 17]: 50
- Plant response rating, Dayflower, VA [3, 19]: 65
- Plant response rating, Dayflower, VA [3, 20]: 10
- Plant response rating, Dayflower, VA [3, 21]: 0
- Plant response rating, Dayflower, VA [3, 23]: 15
- Plant response rating, Dayflower, VA [3, 22]: 30
- Plant response rating, Crabgrass, Large [4, 11]: 15
- Plant response rating, Crabgrass, Large [4, 24]: 80
- Plant response rating, Crabgrass, Large [4, 14]: 85
- Plant response rating, Ryegrass, Italian [5, 15]: 80
- Plant response rating, Ryegrass, Italian [5, 16]: 95
- Plant response rating, Ryegrass, Italian [5, 17]: 85
- Plant response rating, Ryegrass, Italian [5, 18]: 98
- Plant response rating, Ryegrass, Italian [5, 19]: 90
- Plant response rating, Ryegrass, Italian [5, 20]: 75
- Plant response rating, Ryegrass, Italian [5, 21]: 95
- Plant response rating, Ryegrass, Italian [5, 22]: 100
- Plant response rating, Foxtail, Green [6, 11]: 98
- Plant response rating, Foxtail, Green [6, 13]: 65
- Plant response rating, Foxtail, Green [6, 24]: 98
- Plant response rating, Foxtail, Green [6, 14]: 100
- Plant response rating, Horseweed [7, 16]: 100
- Plant response rating, Horseweed [7, 21]: 100
- Plant response rating, Horseweed [7, 23]: 100
- Plant response rating, Horseweed [7, 22]: 100
- Plant response rating, Field Bindweed [8, 15]: 95
- Plant response rating, Field Bindweed [8, 16]: 98
- Plant response rating, Field Bindweed [8, 17]: 95
- Plant response rating, Field Bindweed [8, 19]: 90
- Plant response rating, Field Bindweed [8, 20]: 90
- Plant response rating, Field Bindweed [8, 21]: 80
- Plant response rating, Field Bindweed [8, 23]: 60
- Plant response rating, Field Bindweed [8, 22]: 98
- Plant response rating, Barnyardgrass [9, 15]: 50
- Plant response rating, Barnyardgrass [9, 16]: 60
- Plant response rating, Barnyardgrass [9, 17]: 50
- Plant response rating, Barnyardgrass [9, 19]: 50
- Plant response rating, Barnyardgrass [9, 20]: 40
- Plant response rating, Barnyardgrass [9, 21]: 20
- Plant response rating, Barnyardgrass [9, 23]: 60
- Plant response rating, Barnyardgrass [9, 22]: 90
- Plant response rating, Morningglory [10, 11]: 70
- Plant response rating, Morningglory [10, 12]: 95
- Plant response rating, Morningglory [10, 13]: 65
- Plant response rating, Morningglory [10, 14]: 100

Compound: CC(=O)Oc1c(C)nn(C)c(=O)c1-c1c(C)sc2c(C)cc(C)cc12 [Compound 27]
- Plant response rating, Nutsedge, Yellow [1, 11]: 15
- Plant response rating, Nutsedge, Yellow [1, 12]: 98
- Plant response rating, Nutsedge, Yellow [1, 13]: 10
- Plant response rating, Nutsedge, Yellow [1, 14]: 80
- Plant response rating, Waterhemp [2, 16]: 90
- Plant response rating, Waterhemp [2, 18]: 85
- Plant response rating, Waterhemp [2, 21]: 95
- Plant response rating, Waterhemp [2, 22]: 95
- Plant response rating, Dayflower, VA [3, 16]: 10
- Plant response rating, Dayflower, VA [3, 21]: 0
- Plant response rating, Dayflower, VA [3, 23]: 30
- Plant response rating, Dayflower, VA [3, 22]: 65
- Plant response rating, Crabgrass, Large [4, 11]: 50
- Plant response rating, Crabgrass, Large [4, 13]: 35
- Plant response rating, Crabgrass, Large [4, 24]: 50
- Plant response rating, Crabgrass, Large [4, 14]: 90
- Plant response rating, Ryegrass, Italian [5, 16]: 95
- Plant response rating, Ryegrass, Italian [5, 18]: 100
- Plant response rating, Ryegrass, Italian [5, 21]: 80
- Plant response rating, Ryegrass, Italian [5, 22]: 100
- Plant response rating, Foxtail, Green [6, 11]: 100
- Plant response rating, Foxtail, Green [6, 13]: 75
- Plant response rating, Foxtail, Green [6, 24]: 100
- Plant response rating, Foxtail, Green [6, 14]: 100
- Plant response rating, Horseweed [7, 16]: 100
- Plant response rating, Horseweed [7, 21]: 100
- Plant response rating, Horseweed [7, 23]: 100
- Plant response rating, Horseweed [7, 22]: 100
- Plant response rating, Field Bindweed [8, 16]: 40
- Plant response rating, Field Bindweed [8, 21]: 0
- Plant response rating, Field Bindweed [8, 23]: 70
- Plant response rating, Field Bindweed [8, 22]: 70
- Plant response rating, Barnyardgrass [9, 16]: 50
- Plant response rating, Barnyardgrass [9, 21]: 15
- Plant response rating, Barnyardgrass [9, 23]: 80
- Plant response rating, Barnyardgrass [9, 22]: 95
- Plant response rating, Morningglory [10, 11]: 85
- Plant response rating, Morningglory [10, 12]: 90
- Plant response rating, Morningglory [10, 13]: 85
- Plant response rating, Morningglory [10, 14]: 100

Compound: CCC(=O)Oc1c(C)nn(C)c(=O)c1-c1c(C)sc2c(C)cc(C)cc12 [Compound 28]
- Plant response rating, Nutsedge, Yellow [1, 11]: 20
- Plant response rating, Nutsedge, Yellow [1, 12]: 70
- Plant response rating, Nutsedge, Yellow [1, 13]: 20
- Plant response rating, Nutsedge, Yellow [1, 14]: 95
- Plant response rating, Waterhemp [2, 16]: 80
- Plant response rating, Waterhemp [2, 17]: 70
- Plant response rating, Waterhemp [2, 18]: 98
- Plant response rating, Waterhemp [2, 19]: 75
- Plant response rating, Waterhemp [2, 21]: 65
- Plant response rating, Waterhemp [2, 22]: 100
- Plant response rating, Dayflower, VA [3, 16]: 10
- Plant response rating, Dayflower, VA [3, 17]: 70
- Plant response rating, Dayflower, VA [3, 19]: 80
- Plant response rating, Dayflower, VA [3, 21]: 5
- Plant response rating, Dayflower, VA [3, 23]: 65
- Plant response rating, Dayflower, VA [3, 22]: 70
- Plant response rating, Crabgrass, Large [4, 11]: 35
- Plant response rating, Crabgrass, Large [4, 24]: 90
- Plant response rating, Crabgrass, Large [4, 14]: 90
- Plant response rating, Ryegrass, Italian [5, 16]: 80
- Plant response rating, Ryegrass, Italian [5, 17]: 75
- Plant response rating, Ryegrass, Italian [5, 18]: 95
- Plant response rating, Ryegrass, Italian [5, 19]: 75
- Plant response rating, Ryegrass, Italian [5, 21]: 70
- Plant response rating, Ryegrass, Italian [5, 22]: 100
- Plant response rating, Foxtail, Green [6, 11]: 98
- Plant response rating, Foxtail, Green [6, 13]: 65
- Plant response rating, Foxtail, Green [6, 24]: 100
- Plant response rating, Foxtail, Green [6, 14]: 100
- Plant response rating, Horseweed [7, 16]: 100
- Plant response rating, Horseweed [7, 17]: 80
- Plant response rating, Horseweed [7, 19]: 80
- Plant response rating, Horseweed [7, 21]: 100
- Plant response rating, Horseweed [7, 23]: 100
- Plant response rating, Horseweed [7, 22]: 98
- Plant response rating, Field Bindweed [8, 16]: 0
- Plant response rating, Field Bindweed [8, 17]: 60
- Plant response rating, Field Bindweed [8, 19]: 80
- Plant response rating, Field Bindweed [8, 21]: 0
- Plant response rating, Field Bindweed [8, 23]: 90
- Plant response rating, Field Bindweed [8, 22]: 75
- Plant response rating, Barnyardgrass [9, 16]: 20
- Plant response rating, Barnyardgrass [9, 17]: 50
- Plant response rating, Barnyardgrass [9, 19]: 60
- Plant response rating, Barnyardgrass [9, 21]: 20
- Plant response rating, Barnyardgrass [9, 23]: 65
- Plant response rating, Barnyardgrass [9, 22]: 90
- Plant response rating, Morningglory [10, 11]: 90
- Plant response rating, Morningglory [10, 12]: 95
- Plant response rating, Morningglory [10, 13]: 50
- Plant response rating, Morningglory [10, 14]: 100
